Where two headings read alike, the source gives them in different places.
Tests used:
[1] = Phase I clinical trial GBM, pharmacokinetics; format: in vivo, human; conditions: human, geometric mean±SD, plasma, read-out: Cmax
Excerpt: No cytochrome P450-inducing anticonvulsants. However, Gliadel was permitted.
Dosing is IV 2×/week continuous.

[2] = target: T1, human recombinant glutathione S-transferase pi (GSTP1) (Homo sapiens, UniProt P09211); assay: In vitro Iniparib-glutathione conjugation; format: biochemical; conditions: 30 μM, 1 mM GSH
T1 construct: purchased Acris
T1 sequence (P09211 whole entry): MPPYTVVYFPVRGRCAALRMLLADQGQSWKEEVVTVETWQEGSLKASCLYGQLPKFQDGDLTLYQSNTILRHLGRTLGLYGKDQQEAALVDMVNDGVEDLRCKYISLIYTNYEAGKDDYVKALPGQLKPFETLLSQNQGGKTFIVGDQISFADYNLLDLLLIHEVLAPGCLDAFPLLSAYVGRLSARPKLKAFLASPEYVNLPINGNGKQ
Procedure: Online solid phase extraction (SPE) was performed using the fully automated Spark Holland Symbiosis™ (Emmen, The Netherlands) in eXtraction Liquid Chromatography (XLC) mode. The Symbiosis™ has previously been described in detail (18). HySphere™ C18 HD 7 μm SPE cartridges were used (Spark Holland). Each cartridge was initially conditioned with 2 ml methanol+0.5% formic acid (FA) and then equilibrated with 2 ml water+0.5% FA, both at flow-rates of 4 ml/min. Sample (25 μl) was aspirated and loaded onto the cartridge with 1 ml water+0.5% FA at a flow-rate of 1 ml/min. […] After elution, the right clamp was washed successively with 2 ml water+0.5% FA, 2 ml methanol+0.5% FA and 2 ml water+0.5% FA at 4 ml/min. […] The mobile phase composition was returned to starting conditions over 1 min and maintained during 6 min for column equilibration. The total run time was 27 min. Mass spectrometry was performed using the Thermo® TSQ Quantum Discovery Max in electrospray positive ionization mode (Thermo, US) with the following parameters: capillary voltage=4.0 kV, capillary temperature=300° C., sheath gas pressure=40, auxiliary gas pressure=5.

[3] = tested on: HCT116 cells; assay: Protein modification by Iniparib-biotin in cells (streptavidin-HRP blot, avidin pull-down LC-MS/MS); format: cell-based, human
Procedure: MDA-MB-453 and HCT116 cells were first pre-treated or not for 48 h with 1 mM BSO. Afterwards cells were incubated in serum-containing conditioned medium with increasing concentrations of Iniparib-biotin derivative for up to 4 hours.
Membranes were blotted with either Streptavidin-HRP (GE Healthcare), monoclonal antibody against GAPDH (Santa Cruz Biotechnology), polyclonal antibody raised against GSTP1 (Santa Cruz Biotechnology) or with MitoProfile® Total OXPHOS human antibody cocktail (Abcam). Detection of reactive bands was performed by enhanced chemiluminescence (West DURA substrate, Pierce, Thermo scientific).
BSO pretreated HCT116 cells were incubated for 4 h with 100 μM Iniparib-biotin. Then clarified octyl-glucoside lysates were combined with monomeric avidin-agarose and mixed overnight at 4° C. […] Final wash was performed with 0.15% octyl-glucoside, 50 mM NaCl, 10 mM Tris-HCl, pH 7.5 prior to Iniparib-biotin modified proteins' elution in 0.1 M glycine, pH 2.8, 20 min at 20° C. After pH adjustment to 8.5 by Ammonium Bicarbonate addition (50 mM final), eluted proteins were reduced (10 mM DTT, 30 min at 56° C.), alkylated (30 mM iodoacetamide, 30 min at 20° C.) and digested with trypsin (10 μg, overnight at 37° C.). Tryptic Iniparib-biotin modified peptides were further purified by monomeric avidin pull-down as described above except that the buffer used was 50 mM NaCl, 10 mM Tris-HCl, pH 7.5. After elution in 0.1 M glycine, pH 2.8, 20 min at 20° C., enriched Iniparib-biotin modified peptides were analyzed by LC-MS/MS. LC-MS/MS experiments were performed on a NanoAcquity UPLC (Waters) coupled to a hybrid LTQ Orbitrap Velos mass spectrometer (Thermo Fisher Scientific) equipped with a nanoelectrospray source. Tryptic digests were loaded onto an UPLC Trap column (Symmetry C18, 5 μm, 180 μm×20 mm, Waters) and washed with 0.2% formic acid at 20 μL/min for 5 min. […] The exact parent mass is the ^12C isotope ion mass of the most intense isotopic pattern detected on the high resolution Orbitrap MS parallel scan and included in the MS/MS selection window.

NC(=O)c1ccc(I)c([N+](=O)[O-])c1 [Iniparib, 4-iodo-3-nitrobenzamide]
Cmax ([1]; 5.1 mg/kg IV 2×/week): 642 ± 315 ng/mL
Cmax ([1]; 6.1 mg/kg IV 2×/week): 928 ± 397 ng/mL
Cmax ([1]; 6.8 mg/kg IV 2×/week): 1020 ng/mL
Cmax ([1]; 8.0 mg/kg IV 2×/week): 3690 ng/mL
Cmax ([1]; 8.6 mg/kg IV 2×/week): 1520 ng/mL
Cmax ([1]; 9.5 mg/kg IV 2×/week): 2140 ng/mL
reaction with GSH ([2]; absence of GSTP1): did not react
conversion of Iniparib to Iniparib-GS ([2]; recombinant GSTP1 added): complete conversion

O=C(CCCC[C@@H]1SC[C@@H]2NC(=O)N[C@@H]21)NCCNC(=O)c1ccc(I)c([N+](=O)[O-])c1 [Iniparib-biotin, 4-iodo-3-nitro-N-(2-(5-((3 aS,4S,6aR)-2-oxohexahydro-1H-thieno[3,4-d]imidazol-4-yl)pentanamido)ethyl)benzamide]
cellular proteins bearing Iniparib adducts ([3]; BSO pretreated HCT116, 100 μM 4 h, MS/MS qualitative analysis): more than 200 cellular proteins
protein labeling with Iniparib-biotin ([3]; HCT116 cells depleted of GSH, up to 100 μM, up to 4 h): strong protein labeling
protein modifications by Iniparib-biotin ([3]; HCT116 cells not depleted of GSH): barely detectable

From patent publication US20200113852A1, “METHODS OF PATIENT SELECTION AND TREATING TRXR- OR PRDX-OVEREXPRESSED CANCERS” (TRIACT THERAPEUTICS, INC., priority 2017, published 2020)
